Reference: patent US20260365622A1, “CRYSTALLINE CARBAZOLE DERIVATIVE AND METHODS OF MAKING THEREOF” (Raziel Therapeutics Ltd., priority 2022, published 2026)

Assays:
Assay type in all cases: physicochemical
[1] = Accelerated stability tests of crystalline Compound A Form 1 (Table 5); conditions: 7 days; for Purity after storage: HPLC
Protocol: (§1) XRPD analysis was carried out on a PANalytical X'pert Pro with PIXcel detector (128 channels), scanning the samples between 3 and 35° […]. The material was gently ground (where required) to release any agglomerates and loaded onto a multi-well plate with Kapton or Mylar polymer film to support the sample. The multi-well plate was then placed into the diffractometer and analyzed using Cu K radiation (α1 λ=1.54060 Å; α2 λ=1.54443 Å; β λ=1.39225 Å; α1:α2 ratio=0.5) running in transmission mode (step size 0.0130° 2θ, step time 18.87 s) using 40 kV/40 mA generator settings. Data were visualized and images generated using the HighScore Plus 4.7 desktop application (PANalytical, 2017).
Crystalline Compound A (Form 1) was not changed after storage at room temperature for 7 days, storage at 40 °C/75% RH for 7 days, or storage at 80 °C for 7 days. Purity was determined by HPLC analysis.

[2] = Long-term stability tests of crystalline Compound A Form 1 (Table 6); conditions: for Purity after storage: HPLC
Protocol: as §1
Crystalline Compound A (Form 1) was not changed after storage at 25 °C/60% RH for 36 months or storage at 40 °C/75% RH for 6 months. Purity was determined by HPLC analysis.

[3] = Karl Fischer (KF) coulometric titration; conditions: in duplicate
Protocol: Water content of crystalline Compound A was determined using KF Coulometric Titration by either direct addition or liquid extraction.
10-20 mg of crystalline Compound A was weighed into a vial. The solid was then manually introduced into the titration cell of a Mettler Toledo C30 Compact Titrator. The vial was back-weighed after the addition of the solid and the weight of the added solid entered on the instrument. Titration was initiated once the sample had fully dissolved in the cell. The water content was calculated automatically by the instrument as a percentage and the data printed. The analysis was carried out in duplicate.
10-20 mg of crystalline Compound A was weighed into a vial, 10-15 mL of the Coulomat was extracted from the cell of a Mettler Toledo C30 Compact Titrator and added to the vial containing the sample. The solid was dissolved by shaking manually or using ultrasonic bath. When complete dissolution was achieved, the solution was injected back into the cell titrator and the weight of the sample added was entered on the instrument. The water content was calculated automatically by the instrument as a percentage and the data printed. The analysis was carried out in duplicate.

[4] = Variable humidity X-ray powder diffraction (VH-XRPD); conditions: desorption phase, 90% RH to 20% RH; starting from Form 2
Protocol: A known mass of 5-(3,6-dibromo-9H-carbazol-9-yl)-N,N,N-trimethylpentan-1-aminium chloride Form 2 (Compound A Form 2) was analyzed by variable humidity X-ray powder diffraction (VH-XRPD) on a Philips X'Pert Pro Multipurpose diffractometer quipped with a humidity chamber. The samples were scanned between 4 and 35.99° 2θ using Cu K radiation (α1 λ=1.54060 Å; α2=1.54443 Å; β=1.39225 Å; α1:α2 ratio=0.5) running in Bragg-Brentano geometry (step size 0.008° 2θ) using 40 kV/40 mA generator settings. Measurements were performed between 7-90% RH and XRPD scans were collected at each humidity step. The VH-XRPD analysis was conducted an absorption phase between ambient and 90% RH, a desorption phase between 90% RH and 7% RH, and a second absorption phase between 20% and 40% RH.

[5] = Conversion of Compound A Form 4 on standing in humid conditions; conditions: standing at 25 °C and 40 °C and at >30% RH
[6] = 25 °C/60% RH (closed container), 24 months

**Q.** With `C[N+](C)(C)CCCCCn1c2ccc(Br)cc2c2cc(Br)ccc21.[Cl-]` [Compound A Form 1, 5-(3,6-dibromo-9H-carbazol-9-yl)-N,N,N-trimethylpentan-1-aminium chloride] as the compound, how does the XRPD after storage ([1]; 40 °C/75% RH (open vial)) read?
**A.** The XRPD after storage was “Unchanged”.

**Q.** And the Purity after storage ([1]; 40 °C/75% RH (open vial))?
**A.** Its Purity after storage is 99.93%.

**Q.** What about the Change after storage ([1]; 40 °C/75% RH) of the same compound?
**A.** The Change after storage was “not changed”.

**Q.** What about the XRPD after storage ([1]; 80 °C (closed vial)) of the same compound?
**A.** Its XRPD after storage is “Unchanged”.

**Q.** And the Purity after storage ([1]; 80 °C (closed vial))?
**A.** The Purity after storage was 99.93%.

**Q.** What about the Change after storage ([1]; 80 °C) of the same compound?
**A.** Its Change after storage is “not changed”.

**Q.** And the XRPD after storage ([1]; Room Temperature (open vial))?
**A.** The XRPD after storage was “Unchanged”.

**Q.** And the Purity after storage ([1]; Room Temperature (open vial))?
**A.** Its Purity after storage is 99.93%.

**Q.** And the Change after storage ([1]; room temperature)?
**A.** Its Change after storage is “not changed”.

**Q.** And the XRPD after storage ([2]; 25 °C/60% RH (closed container), 3 months)?
**A.** Its XRPD after storage is “Unchanged”.

**Q.** And the Purity after storage ([2]; 25 °C/60% RH (closed container), 3 months, 131040 min)?
**A.** The Purity after storage was 99.7%.

**Q.** And the XRPD after storage ([2]; 25 °C/60% RH (closed container), 6 months)?
**A.** The XRPD after storage was “Unchanged”.

**Q.** What about the Purity after storage ([2]; 25 °C/60% RH (closed container), 6 months, 263520 min) of the same compound?
**A.** Its Purity after storage is 99.7%.

**Q.** What about the XRPD after storage ([2]; 25 °C/60% RH (closed container), 12 months) of the same compound?
**A.** Its XRPD after storage is “Unchanged”.

**Q.** And the Purity after storage ([2]; 25 °C/60% RH (closed container), 12 months, 525600 min)?
**A.** The Purity after storage was 99.7%.

**Q.** What about the XRPD after storage [2, 6] of the same compound?
**A.** Its XRPD after storage is “Unchanged”.

**Q.** What about the Purity after storage [2, 6] of the same compound?
**A.** The Purity after storage was 99.7%.

**Q.** And the XRPD after storage ([2]; 25 °C/60% RH (closed container), 36 months)?
**A.** The XRPD after storage was “Unchanged”.

**Q.** And the Purity after storage ([2]; 25 °C/60% RH (closed container), 36 months, 1.5768e+06 min)?
**A.** The Purity after storage was 99.7%.

**Q.** What about the Change after storage ([2]; 25 °C/60% RH, 36 months) of the same compound?
**A.** Its Change after storage is “not changed”.

**Q.** And the XRPD after storage ([2]; 40 °C/75% RH (closed container), 1 month)?
**A.** The XRPD after storage was “Unchanged”.

**Q.** And the Purity after storage ([2]; 40 °C/75% RH (closed container), 1 month, 43200 min)?
**A.** Its Purity after storage is 99.7%.

**Q.** What about the XRPD after storage ([2]; 40 °C/75% RH (closed container), 3 months) of the same compound?
**A.** Its XRPD after storage is “Unchanged”.

**Q.** And the Purity after storage ([2]; 40 °C/75% RH (closed container), 3 months, 131040 min)?
**A.** The Purity after storage was 99.7%.

**Q.** And the XRPD after storage ([2]; 40 °C/75% RH (closed container), 6 months)?
**A.** The XRPD after storage was “Unchanged”.

**Q.** And the Purity after storage ([2]; 40 °C/75% RH (closed container), 6 months, 263520 min)?
**A.** Its Purity after storage is 99.8%.

**Q.** What about the Change after storage ([2]; 40 °C/75% RH, 6 months) of the same compound?
**A.** The Change after storage was “not changed”.

**Q.** What about the Water content ([3]; listed as Form 1) of the same compound?
**A.** Its Water content is 4.38% w/w %.

**Q.** Which Crystalline form observed [4] does the source give for `C[N+](C)(C)CCCCCn1c2ccc(Br)cc2c2cc(Br)ccc21.[Cl-]` [Compound A Form 2, 5-(3,6-dibromo-9H-carbazol-9-yl)-N,N,N-trimethylpentan-1-aminium chloride] here?
**A.** Its Crystalline form observed is “Crystalline Form 1 of Compound A was observed during the desorption phase between 90% RH and 20% RH”.

**Q.** Which Water content ([3]; listed as Form 3) does the source give for `C[N+](C)(C)CCCCCn1c2ccc(Br)cc2c2cc(Br)ccc21.[Cl-]` [Compound A Form 3, 5-(3,6-dibromo-9H-carbazol-9-yl)-N,N,N-trimethylpentan-1-aminium chloride] here?
**A.** Its Water content is 5.3% w/w %.

**Q.** What does the source list for `C[N+](C)(C)CCCCCn1c2ccc(Br)cc2c2cc(Br)ccc21.[Cl-]` [Compound A Form 4, 5-(3,6-dibromo-9H-carbazol-9-yl)-N,N,N-trimethylpentan-1-aminium chloride]?
**A.** Water content ([3]; listed as Form 4): 1% w/w %; Conversion of crystalline form [5]: converted to crystalline Form 1 of Compound A
